Measured values published in patent publication US12391687B2, “Five-and-six-membered heterocyclic compound and use thereof as protein receptor kinase inhibitor” (SHANGHAI ENNOVABIO PHARMACEUTICALS CO., LTD., priority 2018, dated 2025).

Experiments:
Recombinant human TRKA = Recombinant human TRKA (Homo sapiens (Human), UniProt P04629); test: In vitro activity test on TRKA kinase (HTRF kinEASE TK); format: biochemical; conditions: 14.68 μM ATP, 40 min, room temperature
Experimental: (§1) Recombinant human TRKA, TRKB, TRKC proteins were purchased from Carna Biosciences. HTRF kinEASE TK kit was purchased from Cisbio Bioassays. Synergy Neo 2 of Biotek was used to read the plate.
(§2) The tested compounds were subjected to 3-fold serial dilution to reach a final concentration of 1 μM to 0.05 nM (10 concentrations), duplicates for each concentration; and the DMSO concentration in the detection reaction was 1%.
0.2 ng/μL TRKA protein kinase, 1 μM TK Substrate-biotin polypeptide substrate, 14.68 μM ATP, 1×enzymatic buffer, 5 mM MgCl2, and 1 mM DTT. The assay plate was White Proxiplate384-Plus plate (PerkinElmer), and the reaction was incubated at room temperature for 40 min, and the assay volume was 10 μL.
(§3) 10 μL of detection reagent (containing 0.125 μM SA-XL665 and 5 μL 1×TK-Antibody) was added to the plate and incubated overnight at room temperature. Synergy Neo 2 was used to read the plate.
(§4) The 665/620 Ratio was converted according to the following formula into inhibition rate (%)=(1−Ratiotest/Ratiomax)×100%. Ratiomax was the value of positive controls without tested compound, and Ratiotest was the value of each concentration of different compounds. IC50 (nM) data was obtained by 4 parameter curve fitting (see Table 1).

Recombinant human TRKB = Recombinant human TRKB (Homo sapiens (Human), UniProt Q16620); test: In vitro activity test on TRKB kinase (HTRF kinEASE TK); format: biochemical; conditions: 4.77 μM ATP, 50 min, room temperature
Experimental: as §1, §2
(§5) 0.037 ng/μL TRKB protein kinase, 1 μM TK Substrate-biotin polypeptide substrate, 4.77 μM ATP, 1× enzymatic buffer, 5 mM MgCl2, 1 mM MnCl2 and 1 mM DTT. The assay plate was White Proxiplate 384-Plus plate (PerkinElmer), the reaction was incubated at room temperature for 50 min, and the assay volume was 10 μL.
as §3, §4

Recombinant human TRKC = Recombinant human TRKC (Homo sapiens (Human), UniProt Q16288); test: In vitro activity test on TRKC kinase (HTRF kinEASE TK); format: biochemical; conditions: 25.64 μM ATP, 40 min, room temperature
Experimental: as §1, §2
as §5, with “ng/μL TRKC” for “ng/μL TRKB”, “substrate, 25.64” for “substrate, 4.77”, “MgCl2,” for “MgCl2, 1 mM MnCl2”, “The detection” for “The assay”, “for 40” for “for 50”
as §3, §4

KM12-LUC cells = test: KM12-LUC cell proliferation experiment (CellTiter-Glo); format: cell-based; conditions: human colon cancer cell line with TPM3-NTRK1 fusion, 72 hours
Experimental: Human colon cancer cell line KM12-LUC (LUC, stably expressing Luciferase) expressing TPM3-NTRK1 fusion gene was used to evaluate cellular activity of the compounds. The TRK fusion gene in KM12-LUC cells makes the sustained activation of TRK and the downstream signaling pathways associated with cell proliferation such as MAPK-ERK, PI3K-AKT, etc independent of the stimulation of extracellular growth factor. […] The method was as follows: On the first day, the cells were seeded into 384-well plates at 2000 cells/well; on the second day, different concentrations of test compounds were added; and on the 5th day, CellTiter-Glo (Promega) was added to detect cell viability, and the cell proliferation inhibition rate at 72 hours was calculated. Statistical analysis was carried out by PRISM5 and the IC50 of the test compounds was calculated.

[1] = molecular target: recombinant human TRKA (G595R) (Homo sapiens (Human), UniProt P04629, G595R); test: In vitro activity test on mutant TRKA (G595R) (HTRF kinEASE TK); format: biochemical; conditions: 4.5 μM ATP, 30 min, room temperature; read-out: TRKA (G595R) IC 50
Experimental: The recombinant human TRKA (G595R), TRKA (G667C) and TRKC (G623R) proteins were purchased from SignalChem. HTRF kinEASE TK kit was purchased from Cisbio Bioassays. Synergy Neo 2 of Biotek was used to read the plate.
The tested compounds were subjected to 4-fold serial dilution to reach a final concentration of 1 μM to 0.004 nM (10 concentrates), duplicates for each concentration; and the final concentration of DMSO in the reaction was 1%.
0.12 ng/μL TRKA (G595R) kinase, 1 μM TK Substrate-biotin polypeptide substrate, 4.5 μM ATP, 1× enzymatic buffer, 5 mM MgCl2, and 1 mM DTT. The assay plate was White Proxiplate384-Plus plate (PerkinElmer), and the reaction was incubated at room temperature for 30 min, and the assay volume was 10 μL.
10 μL of detection reagent (containing 0.125 μM SA-XL665 and 5 μL 1×TK-Antibody) was added to the plate and incubated overnight at room temperature, and Synergy Neo 2 was used to read the plate.
The value of 665/620 Ratio minus the value of negative control wells without enzyme, then the obtained value was converted according to the following formula into inhibition rate (%)=(1−Ratiotest/Ratiomax)×100%. Ratiomax was the value of positive controls without tested compound, and Ratiotest was the value of each concentration of different compounds. IC50 (nM) data was obtained by 4 parameter curve fitting (see Table 3).

Chain of recombinant human TRKA (G595R) (P04629 33-796 G595R): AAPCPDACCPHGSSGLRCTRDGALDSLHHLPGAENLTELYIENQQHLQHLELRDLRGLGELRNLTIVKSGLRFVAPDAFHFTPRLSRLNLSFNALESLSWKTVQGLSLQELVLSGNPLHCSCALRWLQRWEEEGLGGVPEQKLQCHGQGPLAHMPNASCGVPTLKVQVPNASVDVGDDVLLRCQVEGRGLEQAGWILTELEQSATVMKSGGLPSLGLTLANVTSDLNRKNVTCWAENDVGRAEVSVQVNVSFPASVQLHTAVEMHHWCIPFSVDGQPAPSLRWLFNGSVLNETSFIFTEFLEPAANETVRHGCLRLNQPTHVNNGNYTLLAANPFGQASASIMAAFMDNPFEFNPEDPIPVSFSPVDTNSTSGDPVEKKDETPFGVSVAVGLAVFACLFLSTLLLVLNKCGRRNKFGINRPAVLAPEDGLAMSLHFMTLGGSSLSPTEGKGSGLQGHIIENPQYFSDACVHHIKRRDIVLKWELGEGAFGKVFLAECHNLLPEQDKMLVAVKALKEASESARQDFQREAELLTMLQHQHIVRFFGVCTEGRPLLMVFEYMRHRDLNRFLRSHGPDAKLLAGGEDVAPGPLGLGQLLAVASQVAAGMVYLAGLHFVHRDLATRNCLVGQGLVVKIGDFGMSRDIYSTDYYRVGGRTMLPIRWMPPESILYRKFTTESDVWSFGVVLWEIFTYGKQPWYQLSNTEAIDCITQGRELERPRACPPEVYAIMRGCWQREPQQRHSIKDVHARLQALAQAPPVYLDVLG
Chain of Recombinant human TRKA (P04629 33-796): as the sequence (P04629 33-796 G595R) above, with R563G counted along it
Chain of Recombinant human TRKC (Q16288 32-839): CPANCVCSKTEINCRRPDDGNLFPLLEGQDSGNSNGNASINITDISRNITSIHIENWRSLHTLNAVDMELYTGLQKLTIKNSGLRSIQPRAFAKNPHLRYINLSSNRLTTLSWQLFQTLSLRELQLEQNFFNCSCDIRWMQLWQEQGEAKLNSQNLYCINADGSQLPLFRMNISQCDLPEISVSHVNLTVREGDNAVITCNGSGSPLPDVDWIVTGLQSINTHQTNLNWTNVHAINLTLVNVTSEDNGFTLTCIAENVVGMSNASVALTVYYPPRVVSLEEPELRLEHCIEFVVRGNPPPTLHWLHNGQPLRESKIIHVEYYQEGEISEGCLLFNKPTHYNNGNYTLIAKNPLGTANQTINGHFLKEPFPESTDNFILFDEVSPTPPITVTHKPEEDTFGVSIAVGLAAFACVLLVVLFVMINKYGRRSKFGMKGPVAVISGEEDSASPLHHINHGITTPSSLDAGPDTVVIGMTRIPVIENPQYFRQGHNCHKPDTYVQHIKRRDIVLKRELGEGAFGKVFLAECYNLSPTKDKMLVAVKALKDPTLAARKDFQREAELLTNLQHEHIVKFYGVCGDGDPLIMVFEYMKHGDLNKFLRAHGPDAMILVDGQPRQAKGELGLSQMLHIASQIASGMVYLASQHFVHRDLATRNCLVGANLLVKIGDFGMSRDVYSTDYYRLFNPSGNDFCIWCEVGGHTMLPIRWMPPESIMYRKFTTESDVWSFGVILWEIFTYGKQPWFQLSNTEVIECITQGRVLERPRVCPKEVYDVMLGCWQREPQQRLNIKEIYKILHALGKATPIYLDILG
Chain of Recombinant human TRKB (Q16620 32-822): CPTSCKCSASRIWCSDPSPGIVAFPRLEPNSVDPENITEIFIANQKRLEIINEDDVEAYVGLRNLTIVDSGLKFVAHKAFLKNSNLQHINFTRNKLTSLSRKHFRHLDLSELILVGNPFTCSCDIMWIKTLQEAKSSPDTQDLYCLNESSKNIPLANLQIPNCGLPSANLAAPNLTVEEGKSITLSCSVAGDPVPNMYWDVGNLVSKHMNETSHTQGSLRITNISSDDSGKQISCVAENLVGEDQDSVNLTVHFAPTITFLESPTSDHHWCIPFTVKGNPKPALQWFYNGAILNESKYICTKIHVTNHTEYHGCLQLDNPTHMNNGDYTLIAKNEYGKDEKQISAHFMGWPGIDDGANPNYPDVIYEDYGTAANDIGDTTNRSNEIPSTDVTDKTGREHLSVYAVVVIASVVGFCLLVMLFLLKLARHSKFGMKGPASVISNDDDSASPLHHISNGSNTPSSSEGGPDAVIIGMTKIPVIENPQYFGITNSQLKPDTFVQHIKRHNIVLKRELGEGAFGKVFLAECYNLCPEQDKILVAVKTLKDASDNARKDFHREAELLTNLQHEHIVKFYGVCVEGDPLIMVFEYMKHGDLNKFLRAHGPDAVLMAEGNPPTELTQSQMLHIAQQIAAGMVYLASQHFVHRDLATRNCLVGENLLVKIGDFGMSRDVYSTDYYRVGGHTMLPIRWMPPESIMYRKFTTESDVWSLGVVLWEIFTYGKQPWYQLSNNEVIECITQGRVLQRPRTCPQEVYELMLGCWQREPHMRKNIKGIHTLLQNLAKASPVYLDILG

IC50 (Recombinant human TRKA) | IC50 (Recombinant human TRKB) | IC50 (Recombinant human TRKC) | IC50 [1] | SMILES | IC50 (KM12-LUC cells)
< 10 nM | < 10 nM | < 10 nM | < 10 nM | NC(=O)c1cnc2[nH]nc(N3C[C@@H](F)C[C@@H]3c3cc(F)ccc3F)c2c1 [Example 5, 3-((2R,4S)-2-(2,5-difluorophenyl)-4-fluoropyrrolidin-1-yl)-1H-pyrazolo[3,4-b]pyridine-5-carboxamide] | < 10 nM
< 1 nM | < 1 nM | < 1 nM | < 1 nM | Fc1ccc(F)c([C@H]2C[C@H](F)CN2c2n[nH]c3ncc(-c4cnn(CC(F)F)c4)cc23)c1 [Example 30, 5-(1-(2,2-difluoroethyl)-1H-pyrazol-4-yl)-3-((2R,4S)-2-(2,5-difluorophenyl)-4-fluoropyrrolidin-1-yl)-1H-pyrazolo[3,4-b]pyridine] | < 10 nM
